Measured values as given in patent publication US4663323A, “Tetrazole derivatives, anti-ulcer composition containing the same and method for treating ulcers” (Otsuka Pharmaceutical Co., Ltd., priority 1984, dated 1987).
Like-named read-outs stand apart in the source and are kept apart here.

What was measured:
gastric juice secretion = assay: Shay rat pylorus ligation method (gastric juice secretion-inhibiting activity); assay type: in vivo, male Wistar rats; settings: sc, 4 h, 100 mg/kg s.c., 30 min before pylorus ligation, measured 4 hours after ligation
Experimental: The pharmacological activities of the compouns (I) were tested by a Shay rat pylorus ligation method (cf. H. Shay et al: Gastroenterol., Vol. 5, page 43, 1945) which is the most popular method for testing of gastric juice secretion-inhibiting activity. The test was carried out by using male Wistar rats, weighing about 170 g and fasting for 24 hours.
Test compounds were administered 30 minutes before the pylorus ligation in a dose of 100 mg/kg in subcutaneous route, and the volume, total acidity and/or pepsin activity of the gastric juice were measured 4 hours after the ligation. As a control, a saline solution was administered instead of the test compound. The inhibitory ratio (%) of the test compounds were calculated when the inhibitory activities of the control were counted as zero (0).
(§1) In the table, the inhibitory ratio (%) was evaluated as follows: […]

Stress Ulcer = assay: Stress Ulcer; assay type: in vivo, male Wistar rats; settings: oral, 1×10^-3 mole in 0.5% CMC, before restraint and water dipping at 23° C. for 7 hours
Experimental: After male Wistar rats weighing about 170 g was fasted for 24 hours, the rats were restrained in a stress cage and dipped in water bath at 23° C. till chest of the animals. After 7 hours, the rats were killed and the stomach was isolated. Into the isolated stomach 10% formalin (8 ml) was poured and settled. The stomach was cut open at the greater curvature, and the length of each ulcer on the membrane was measured. Sum of the length of all ulcers was shown as ulcer index (UI). The test compound was orally administered to the rats before restraint in a stress cage in the form of 0.5% CMC suspension in a concentration of 1×10^-3 mole. As a control, only the solvent (CMC solution) was administered likewise.
The inhibitory ratio (%) of stress ulcer of the test compounds was calculated by the following equation: [formula]
as §1

Acute Toxicity = settings: rat, in vivo, po, male Wistar rats
Experimental: The test compounds were orally administered to male Wistar rats, and the half lethal dose (LD50) was measured.

[1] = saline control = 0, read-out: Inhibitory ratio, Pepsin activity
[2] = saline control = 0, read-out: Inhibitory ratio, Total acidity
[3] = saline control = 0, read-out: Inhibitory ratio, Volume of gastric juice

Row | SMILES | inhibition in vivo at 100 mg/kg (gastric juice secretion; [1]) [%] | inhibition in vivo at 100 mg/kg (gastric juice secretion; [2]) [%] | inhibition in vivo at 100 mg/kg (gastric juice secretion; [3]) [%] | Inhibitory ratio of stress ulcer (Stress Ulcer) | LD50 (Acute Toxicity) [mg/kg]
1 | CCN(C(=O)CCCSc1nnnn1-c1ccccc1)C1CCCCC1 [Compound 31, N-Ethyl-N-cyclohexyl-4-(1-phenyl-1,2,3,4-tetrazol-5-yl)thio-butyramide] | 10 to 50 | 10 to 50 | > 50 |  | 
2 | CCCCn1nnnc1CSCCC(=O)NCC [Compound 15, N-Ethyl-3-(1-butyl-1,2,3,4-tetrazol-5-yl)-methylthio-propionamide] |  |  |  | ++ (more than 60%) | 
3 | CCN(C(=O)CCCSc1nnnn1C)C1CCCCCC1 [Compound 20, N-Ethyl-N-cycloheptyl-4-(1-methyl-1,2,3,4-tetrazol-5-yl)thio-butyramide] | < 10 | 10 to 50 | > 50 |  | 
4 | CCN(CC)C(=O)CCCSCc1nnnn1CC [Compound 18, N,N-Diethyl-4-(1-ethyl-1,2,3,4-tetrazol-5-yl)methylthio-butyramide] |  |  |  | + (30 to less than 60%) | 
5 | Cn1nnnc1SCCCC(=O)N(CCO)c1ccccc1 [Compound 40, N-(2-Hydroxyethyl)-N-phenyl-4-(1-methyl-1,2,3,4-tetrazol-5-yl)thio-butyramide] |  |  | 10 to 50 |  | 
6 | CCN(C(=O)CCSCc1nnnn1CC)C1CCCCC1 [Compound 36, N-Ethyl-N-cyclohexyl-3-(1-ethyl-1,2,3,4-tetrazol-5-yl)methylthio-propionamide] |  |  | > 50 |  | 
7 | CCN(CC)C(=O)CCCCc1nnn[nH]1 [Compound 52, N,N-Diethyl-5-(1,2,3,4-tetrazol-5-yl)-valeramide] |  |  | 10 to 50 | + (30 to less than 60%) | 
8 | Cc1c(Cl)cccc1NC(=O)CCCSc1nnnn1C [Compound 42, N-(2-Methyl-3-chlorophenyl)-4-(1-methyl-1,2,3,4-tetrazol-5-yl)thio-butyramide] |  |  | 10 to 50 |  | 
9 | CC(C)N(C(=O)CCCSc1nnnn1C)C1CCCCC1 [Compound 24, N-Isopropyl-N-cyclohexyl-4-(1-methyl-1,2,3,4-tetrazol-5-yl)thio-butyramide] | < 10 | 10 to 50 | > 50 |  | 
10 | Cn1nnnc1SCCCC(=O)N(Cc1ccccc1)Cc1ccccc1 [Compound 22, N,N-Dibenzyl-4-(1-methyl-1,2,3,4-tetrazol-5-yl)thio-butyramide] | < 10 | 10 to 50 | 10 to 50 |  | 
11 | Cn1nnnc1SCCCC(=O)Nc1ccc(S(N)(=O)=O)cc1 [Compound 41, N-(4-Sulfamoylphenyl)-4-(1-methyl-1,2,3,4-tetrazol-5-yl)thio-butyramide] |  |  | 10 to 50 |  | 
12 | CCN(CC)C(=O)CCCCc1nnnn1-c1ccccc1 [Compound 35, N,N-Diethyl-5-(1-phenyl-1,2,3,4-tetrazol-5-yl)valeramide] | 10 to 50 | 10 to 50 | 10 to 50 | + (30 to less than 60%) | 
13 | Cn1nnnc1SCCCC(=O)Nc1ccc([N+](=O)[O-])cc1 [Compound 43, N-(4-Nitrophenyl)-4-(1-methyl-1,2,3,4-tetrazol-5-yl)thio-butyramide] |  |  | 10 to 50 |  | 
14 | Cn1nnnc1SCCCC(=O)NCc1ccco1 [Compound 13, N-Furfuryl-4-(1-methyl-1,2,3,4-tetrazol-5-yl)thio-butyramide] | 10 to 50 | 10 to 50 | 10 to 50 |  | > 500
15 | Cn1nnnc1SCCCC(=O)NC1CCCCC1 [Compound 6, N-Cyclohexyl-4-(1-methyl-1,2,3,4-tetrazol-5-yl)thio-butyramide] | 10 to 50 | 10 to 50 | 10 to 50 |  | > 500
16 | CCN(CC)C(=O)CCCCc1nnnn1C [Compound 34, N,N-Diethyl-5-(1-methyl-1,2,3,4-tetrazol-5-yl)valeramide] | 10 to 50 | 10 to 50 | 10 to 50 | + (30 to less than 60%) | 
17 | CC(C)N(C(=O)CCCSc1nnnn1C)C(C)C [Compound 21, N,N-Diisopropyl-4-(1-methyl-1,2,3,4-tetrazol-5-yl)thio-butyramide] | < 10 | 10 to 50 | > 50 |  | 

Row | SMILES | inhibition in vivo at 100 mg/kg (gastric juice secretion; [1]) [%] | inhibition in vivo at 100 mg/kg (gastric juice secretion; [2]) [%] | inhibition in vivo at 100 mg/kg (gastric juice secretion; [3]) [%] | Inhibitory ratio of stress ulcer (Stress Ulcer) | LD50 (Acute Toxicity) [mg/kg]
18 | CCN(C(=O)CCCSc1nnnn1C)c1ccccn1 [Compound 10, N-Ethyl-N-(2-pyridyl)-4-(1-methyl-1,2,3,4-tetrazol-5-yl)thio-butyramide] |  | 10 to 50 |  |  | > 500
19 | COc1ccc(CCN(C(=O)CCCSc2nnnn2C)C2CCCCC2)cc1OC [Compound 11, N-Cyclohexyl-N-[2-(3,4,-dimethoxyphenyl)-ethyl]-4-(1-methyl-1,2,3,4-tetrazol-5-yl)thio-butyramide] | 10 to 50 | 10 to 50 | 10 to 50 |  | > 500
20 | CCN(C(=O)CCCSc1nnnn1C)C1CCCC1 [Compound 29, N-Ethyl-N-cyclopentyl-4-(1-methyl-1,2,3,4-tetrazol-5-yl)thio-butyramide] | 10 to 50 | > 50 | > 50 |  | 
21 | Cn1nnnc1SCCCC(=O)Nc1ccccn1 [Compound 27, N-(2-Pyridyl)-4-(1-methyl-1,2,3,4-tetrazol-5-yl)thio-butyramide] | 10 to 50 | 10 to 50 | 10 to 50 |  | 
22 | COC(=O)CCCCc1nnnn1C1CCCCC1 [Compound 54, Methyl 5-(1-cyclohexyl-1,2,3,4-tetrazol-5-yl)valerate] |  |  | 10 to 50 |  | 
23 | Cn1nnnc1SCCCC(=O)N1CCOCC1 [Compound 33, 1-Methyl-5-(3-morpholinocarbonylpropyl)thio-1,2,3,4-tetrazole] | 10 to 50 | 10 to 50 | 10 to 50 |  | 
24 | CCN(CC1CCCCC1)C(=O)CCCSc1nnnn1C [Compound 30, N-Ethyl-N-cyclohexylmethyl-4-(1-methyl-1,2,3,4-tetrazol-5-yl)thio-butyramide] | 10 to 50 | 10 to 50 | > 50 |  | 
25 | CCN(CC)C(=O)CCSCc1nnnn1CC [Compound 14, N,N-Diethyl-3-(1-ethyl-1,2,3,4-tetrazol-5-yl)methylthio-propionamide] |  |  | 10 to 50 | ++ (more than 60%) | 
26 | CC(=O)N1CCN(C(=O)CCCSc2nnnn2C)CC1 [Compound 32, 1-Methyl-5-[3-(4-acetyl-1-piperazinylcarbonyl)propyl]thio-1,2,3,4-tetrazol] | 10 to 50 | 10 to 50 | 10 to 50 |  | 
27 | Cn1nnnc1SCCCC(=O)O [Compound 38, 4-(1-methyl-1,2,3,4-tetrazol-5-yl)thiobutyric acid] |  |  | 10 to 50 |  | 
28 | CCN(C(=O)CCCCc1nnnn1C)C1CCCCC1 [Compound 51, N-Ethyl-N-cyclohexyl-5-(1-methyl-1,2,3,4-tetrazol-5-yl)valeramide] |  |  | 10 to 50 | + (30 to less than 60%) | 
29 | CC(C)N(C(=O)CCCCc1nnnn1-c1ccccc1)C1CCCCC1 [Compound 50, N-Isopropyl-N-cyclohexyl-5-(1-phenyl-1,2,3,4-tetrazol-5-yl)valeramide] |  |  |  | ++ (more than 60%) | 
30 | CCc1ccc(-n2nnnc2CSCCC(=O)O)cc1 [Compound 53, 3-[1-(4-Ethylphenyl)-1,2,3,4-tetrazol-5-yl]-methylthio-propionic acid] |  |  | 10 to 50 |  | 
31 | Cn1nnnc1SCCCC(=O)N1CCCCC1 [Compound 25, 1-Methyl-5-(3-piperidylcarbonylpropyl)thio-1,2,3,4-tetrazole] | 10 to 50 | 10 to 50 | 10 to 50 |  | 
32 | CCCCCCNC(=O)CCCCc1nnnn1-c1ccccc1 [Compound 48, N-(n-Hexyl)-5-(1-phenyl-1,2,3,4-tetrazol-5-yl)valeramide] |  |  |  | + (30 to less than 60%) | 
33 | CCN(C(=O)CCCCc1nnnn1C1CCCCC1)C1CCCCC1 [Compound 23, N-Ethyl-N-cyclohexyl-5-(1-cyclohexyl-1,2,3,4-tetrazol-5-yl)valeramide] | < 10 | 10 to 50 | 10 to 50 | + (30 to less than 60%) | 
